Experimental data: patent US10065965B2, “Imidazo[1,2-B][1,2,4]triazine derivatives as antiparasitic agents” (GlaxoSmithKline Intellectual Property Development Limited, priority 2015, dated 2018)

Tested on: Trypanosoma brucei
Assay: Assay 3 Trypanosoma brucei cell growth inhibition assay
Type: cell-based
Conditions: T. b. brucei BSF427, 69 h + 4 h resazurin, maximum threshold 8.0, read-out: pEC50 value against Trypanosoma brucei (converted)
Experimental: Measurement of the ability of the compounds to inhibit trypanosome (T. b. brucei, BSF427, VSG118) cell growth was performed using a modification of the cell viability assay previously described by Raz et al. (Raz B.; Iten M.; Grether-Buhler Y.; Kaminski R.; Brun R. The Alamar Blue assay to determine drug sensitivity of African trypanosomes (T. b. rhodesiense and T. b. gambiense) in vitro. Acta Trop. 1997, 68, 139-147). Compounds were dissolved in DMSO at a top concentration of 10 mM and serially diluted in half log steps to achieve a range of final assay concentrations of 50 μM to 0.5 nM. Compound at each concentration (200-fold final) was added to clear 96-well tissue culture plates in a volume of 1 μL. Then 2000 cells per well in relevant growth medium (HMI-9T for T. brucei, a modification of HMI-9 as described by Hurumi et al. (Hirumi H.; Hirumi K. Continuous cultivation of Trypanosoma brucei blood stream forms in a medium containing a low concentration of serum-protein without feeder cell-layers. J. Parasitol. 1989, 75, 985-989.) where 0.2 mM 2-mercaptoethanol was replaced with 0.056 mM thiolglycerol, and MEM with 10% FBS for MRC5) were then added to columns 1-11 of the plates in a volume of 199 μL. To column 12, 200 μL of medium was added to provide a no cells control. Plates were then incubated at 37° C. in an atmosphere of 5% CO2 for 69 h, before the addition of 20 μL of 500 μM rezasurin solution, and a further incubation period of 4 h. Plates were then read on a BioTek flx800 fluorescent plate reader, and percentage inhibition was compared to the maximum and minimum assay controls. Concentration effect curves were fitted using nonlinear regression using XLFit 4.2 and EC50 values determined.

SMILES: O=C(Nc1ccc(F)c(-c2cn3nc(N4CCOCC4)cnc3n2)c1)N1CCCC1 [Example 1, N-(4-fluoro-3-(2-morpholinoimidazo[1,2-b][1,2,4]triazin-6-yl)phenyl)pyrrolidine-1-carboxamide]
- EC50: < 0.01 µM
